The results in this text go back to patent US12421317B2, “Polynucleotides encoding anti-glucagon-like peptide 1 receptor (GLP1R) antagonist antibodies” (Regeneron Pharmaceuticals, Inc., priority 2020, dated 2025).

Marks after values point to notes of the source that are not given here.

The assay deals with GLP1R humanized mice. Put plainly: GLP1-induced hypoglycemia (Exendin-4 challenge) in GLP1R humanized mice, glucose AUC (Example 6). It is filed as in vivo. As to conditions: for Normalized glucose AUC during Exendin-4 challenge: Exendin-4 at 0-min, test article 10 mg/kg s.c., mean. The method, then: Thirty-nine, 2.5-month-old male GLP1R humanized mice were randomly divided into one group of sixteen mice, two groups of eight mice, and one group of seven mice. On Day 0, the group of sixteen animals (Groups 1 and 2) were administered subcutaneously (s.c.) with a hIgG4 isotype control antibody (referred to as isotype control, dose of 10 mg/kg). […] The group of seven animals (Group 5) was administered s.c. (dose of 10 mg/kg) with mAb36986. […] […] At the same time point, animals in Groups 3, 4, and 5 were administered i.p. with Exendin-4 (dose of 0.01 mg/kg). For all animals, blood glucose levels were measured with a handheld glucometer immediately before and 15, 30, 60, and 120 minutes after saline or Exendin-4 administration. All animals remained in their assigned groups until the study completion on Day 80. With animals in Groups 1, 2, 4, and 5, the Exendin-4 challenge was repeated on Days 3, 7, 15, 21, 29, 65, and 80.
The AUC value of each animal at each challenge was normalized to the mean AUC value of Group 1. Statistical analyses were performed by one-way ANOVA followed by Bonferroni post-hoc tests, comparing Groups 1, 3, 4, or 5 to Group 2, for each challenge.

Regarding “Exendin-3 (9-39) amide [Exendin-9, reference compound]”, the “correction of Exendin-4 induced hypoglycemia” value (10 mg/kg s.c.) was “correction of Exendin-4 induced hypoglycemia when Exendin-4 challenge was performed 30 minutes post Exendin-9 administration, but not when the challenge was performed 4.5 or 24 hours post Exendin-9 administration”. The “Normalized glucose AUC during Exendin-4 challenge” value is listed as 101.3**** % of Group 1 (0.5 h post test article), 70.1 % of Group 1 (4.5 h post test article) and 74.1 % of Group 1 (24 h post test article).
